In patent US11814364B2, “Pyridine N-oxide derivatives useful as factor XIa inhibitors” (Janssen Pharmaceutica NV, priority 2021, dated 2023):

What follows are molecules tested against human plasma kallikrein (Homo sapiens, UniProt P03952) (assay: Kallikrein inhibition FLINT assay with quenched AMC peptide substrate Z-Gly-Pro-Arg-AMC (end point EP or kinetic KIN reads)). Details: kinetic reads at 5 min intervals over 30 min; read-out: Kallikrein (KIN) IC50.
Assay type: biochemical
Procedure, shortened: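 Enzyme and compound were preincubated 30 min before adding 50 μM AMC substrate in pH 7.5 Tris/NaCl/CaCl2/BSA/CHAPS buffer. AMC release was read at 30 min endpoint or every 5 min.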

human plasma kallikrein, sequence (P03952 391-638 limits assumed): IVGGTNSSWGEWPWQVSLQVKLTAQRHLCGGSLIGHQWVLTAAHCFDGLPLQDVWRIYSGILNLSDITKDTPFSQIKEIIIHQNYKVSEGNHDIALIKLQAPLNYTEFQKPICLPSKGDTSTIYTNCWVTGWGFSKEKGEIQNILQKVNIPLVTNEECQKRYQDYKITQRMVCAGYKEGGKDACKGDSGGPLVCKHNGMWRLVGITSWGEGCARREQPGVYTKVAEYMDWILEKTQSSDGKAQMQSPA
human plasma kallikrein, sequence (P03952 20-390 partner limits assumed): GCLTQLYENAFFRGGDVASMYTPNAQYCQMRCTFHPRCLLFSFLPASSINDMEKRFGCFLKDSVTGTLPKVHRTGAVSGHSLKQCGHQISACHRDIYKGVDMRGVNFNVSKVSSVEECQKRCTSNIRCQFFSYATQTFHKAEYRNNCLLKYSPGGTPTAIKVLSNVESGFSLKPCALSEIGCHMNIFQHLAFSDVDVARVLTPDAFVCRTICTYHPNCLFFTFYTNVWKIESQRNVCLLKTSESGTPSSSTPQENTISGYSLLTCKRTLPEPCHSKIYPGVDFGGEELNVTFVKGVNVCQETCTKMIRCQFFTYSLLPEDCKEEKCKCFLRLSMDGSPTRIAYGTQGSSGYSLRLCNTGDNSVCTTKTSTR

In order of rising IC50:
1. [O-][n+]1cc(-c2c(-n3cnnn3)ccc(Cl)c2F)ccc1C(Cc1ccc(F)cc1)n1cc(-c2ccncc2)cn1 (single isomer, unassigned) [Example P235]  1.4 nM
2. [2H]C([2H])(C[C@H](c1ccc(-c2c(-n3cnnn3)ccc(Cl)c2F)c[n+]1[O-])n1cc(-c2cn(C)nc2Cl)cn1)OC(F)F [Example P850]  1.4 nM
3. Nc1ccc(-c2cnn(C(CCOC(F)F)c3ccc(-c4c(-n5cnnn5)ccc(Cl)c4F)c[n+]3[O-])c2)c(F)n1 (single isomer, unassigned) [Example P297]  2.2 nM
4. [O-][n+]1cc(-c2c(-n3cnnn3)ccc(Cl)c2F)ccc1C(CCOC(F)F)n1cc(-c2ccncc2F)cn1 (centres unmarked) [Example P385]  3.5 nM
5. Cn1ccc(C[C@H](c2ccc(-c3c(-n4cc(C(F)(F)F)nn4)ccc(Cl)c3F)c[n+]2[O-])n2cc(-c3ccc(C(=O)O)cc3)cn2)n1 [Example P855]  3.7 nM
6. COc1cc(C(CC2CC2)n2cc(-c3ccc(N)nc3F)cn2)[n+]([O-])cc1-c1c(-n2cnnn2)ccc(Cl)c1F (centres unmarked) [Example P85]  4.1 nM
7. NC(=O)c1ccc(-c2cnn(C(Cc3ncco3)c3ccc(-c4c(-n5cc(C(F)(F)F)nn5)ccc(Cl)c4F)c[n+]3[O-])c2)cc1F (centres unmarked) [Example P909]  5.5 nM
8. Nc1ncc(-c2cnn(C(Cc3ccc(Cl)cc3)c3ccc(-c4c(-n5cnnn5)ccc(Cl)c4F)c[n+]3[O-])c2)cc1F (centres unmarked) [Example P162]  6.8 nM
9. [O-][n+]1cc(-c2c(-n3cnnn3)ccc(Cl)c2F)ccc1C(CC1CC1)n1cc(-c2c[nH]nc2Cl)cn1 (centres unmarked) [Example P938]  6.9 nM
10. [O-][n+]1cc(-c2c(-n3cnnn3)ccc(Cl)c2F)ccc1[C@@H](Cn1ccc(OC(F)F)n1)n1cc(-c2ccnc(C(F)(F)F)c2)cn1 [Example P533]  7.7 nM
11. N#Cc1cc(-c2cnn(C(Cn3cc(F)cn3)c3ccc(-c4c(-n5cnnn5)ccc(Cl)c4F)c[n+]3[O-])c2)ccn1 (single isomer, unassigned) [Example P454]  12.6 nM
12. Cn1nccc1-c1cnn(C(Cn2cc(F)cn2)c2ccc(-c3c(-n4cnnn4)ccc(Cl)c3F)c[n+]2[O-])c1 (centres unmarked) [Example P503]  13.4 nM
13. [O-][n+]1cc(-c2c(-n3cnnn3)ccc(Cl)c2F)ccc1C(Cn1cc(F)cn1)n1cc(-c2ccnc(F)c2)cn1 (centres unmarked) [Example P352]  13.4 nM
14. O=C1CCCN1CC(c1ccc(-c2c(-n3cnnn3)ccc(Cl)c2F)c[n+]1[O-])n1cc(-c2ccnc(C(F)(F)F)c2)cn1 (single isomer, unassigned) [Example P364]  13.5 nM
15. [O-][n+]1ccc(-c2cnn(C(CCOC(F)F)c3ccc(-c4c(-n5cnnn5)ccc(Cl)c4F)c[n+]3[O-])c2)c(F)c1 (single isomer, unassigned) [Example P306]  14.8 nM
16. [O-][n+]1cc(-c2c(-n3cnnn3)ccc(Cl)c2F)ccc1[C@@H](Cc1cnn(C(F)F)n1)n1cc(-c2ccnc(C(F)(F)F)c2)cn1 [Example P742]  19.1 nM
17. [O-][n+]1cc(-c2c(-n3cnnn3)ccc(Cl)c2F)ccc1C(C(O)c1ccccc1)n1cc(-c2ccnn2C(F)F)cn1 (single isomer, unassigned) [Example P716]  22.1 nM
18. [O-][n+]1cc(-c2cc(Cl)ccc2-n2cnnn2)ccc1C(Cn1cccn1)n1cc(-c2ccnc(C3CC3)c2)cn1 (centres unmarked) [Example P286]  23 nM
19. NC(=O)C1CC1CC(c1ccc(-c2c(-n3cnnn3)ccc(Cl)c2F)c[n+]1[O-])n1cc(-c2ccc(N)nc2F)cn1 (single isomer, unassigned) [Example P340]  39.3 nM
20. COCC[C@H](c1ccc(-c2c(C(F)F)ccc(Cl)c2F)c[n+]1[O-])n1cc(-c2ccc(C(=O)O)cc2)cn1 [Example Q34]  50.5 nM
21. O=C(c1cnn(CC(c2ccc(-c3c(-n4cnnn4)ccc(Cl)c3F)c[n+]2[O-])n2cc(-c3cc[n+]([O-])cc3)cn2)c1)N1CCCCC1 (centres unmarked) [Example P292]  51.3 nM
22. CC(=O)N(C)CC(c1ccc(-c2c(-n3cnnn3)ccc(Cl)c2F)c[n+]1[O-])n1cc(-c2ccncc2)cn1 (centres unmarked) [Example P302]  54.6 nM
23. Cn1ncc(-c2cnn(C(CC3CC3)c3cc(Cl)c(-c4c(-n5cnnn5)ccc(Cl)c4F)c[n+]3[O-])c2)cc1=O (centres unmarked) [Example P139]  57.5 nM
24. COc1cc(C(CC2CC2)n2cc(-c3ncnn3C(F)F)cn2)[n+]([O-])cc1-c1c(C#N)ccc(Cl)c1F (centres unmarked) [Example Q56]  58.9 nM
25. CN(C)C(=O)CC(c1ccc(-c2c(-n3cc(C(F)(F)F)nn3)ccc(Cl)c2F)c[n+]1[O-])n1cc(-c2ccc(C(N)=O)c(F)c2)cn1 (centres unmarked) [Example P884]  61.3 nM
26. COC(=O)Nc1ccc(-c2cnn(C(CC3CCCCC3)c3ccc(-c4c(-n5cnnn5)ccc(Cl)c4F)c[n+]3[O-])c2)cc1 (centres unmarked) [Example P102]  72.2 nM
27. Cn1ncnc1-c1cnn(C(CCOC(F)F)c2ccc(-c3c(-n4cc(OC(F)F)nn4)ccc(Cl)c3F)c[n+]2[O-])c1 (centres unmarked) [Example P801]  84.1 nM
28. [O-][n+]1cc(-c2c(-n3cnnn3)ccc(Cl)c2F)ccc1C(CC1CC1)n1cc(-c2ccnc(OC(F)F)c2)cn1 (centres unmarked) [Example P313]  151 nM
29. CCOc1cc(C(CC2CC2)n2cc(-c3cnn(C)c(=O)c3)cn2)[n+]([O-])cc1-c1c(-n2cnnn2)ccc(Cl)c1F (centres unmarked) [Example P137]  151 nM
30. NC(=O)C1CC1CC(c1ccc(-c2cc(Cl)ccc2-n2cnnn2)c[n+]1[O-])n1cc(-c2ccc(C(=O)O)cc2)cn1 (centres unmarked) [Example P114]  184 nM
31. Cc1cc(-c2cnn(C(Cn3cc(F)cn3)c3ccc(-c4c(-n5cnnn5)ccc(Cl)c4F)c[n+]3[O-])c2)cc(C)[n+]1[O-] (centres unmarked) [Example P477]  188 nM
32. COc1cnc(F)c(-c2cnn(C(CC3CC3)c3ccc(-c4c(-n5cnnn5)ccc(Cl)c4F)c[n+]3[O-])c2)c1 (centres unmarked) [Example P75]  249 nM
33. COCC[C@H](c1ccc(-c2c(-n3cc(Cl)nn3)ccc(Cl)c2F)c[n+]1[O-])n1cc(-c2c(F)cnn2C(F)F)cn1 [Example P626]  322 nM
34. COC(=O)Nc1ccc(-c2cnn(C(CC3CC3C(=O)N3CCCC(c4ccccc4)C3)c3ccc(-c4c(-n5cnnn5)ccc(Cl)c4F)c[n+]3[O-])c2)cc1 (centres unmarked) [Example P221]  377 nM
35. Cn1ncc(Cl)c1-c1cnn(C(CC2CC2)c2ccc(-c3c(-n4cnnn4)ccc(Cl)c3F)c[n+]2[O-])c1 (centres unmarked) [Example P555]  573 nM
36. [O-][n+]1cc(-c2c(-n3cnnn3)ccc(Cl)c2F)ccc1C(Cc1ccc(F)cc1)n1cc(-c2nnn(C(F)F)c2Cl)cn1 (centres unmarked) [Example P610]  582 nM
37. [O-][n+]1cc(-c2c(-n3cnnn3)ccc(Cl)c2F)ccc1[C@H](Cc1cn(C(F)F)nn1)n1cc(-c2ccnc(C(F)(F)F)c2)cn1 [Example P746]  588 nM
38. [O-][n+]1ccc(-c2cnn(C(Cn3cccn3)c3ccc(-c4c(-n5cnnn5)ccc(Cl)c4F)c[n+]3[O-])c2)cc1C(F)F (single isomer, unassigned) [Example P339]  670 nM
39. O=C(O)c1ccc(-c2cnn(C(CCc3ccccc3)c3ccc(-c4cc(Cl)ccc4-n4cnnn4)c[n+]3[O-])c2)cc1 (centres unmarked) [Example P65]  721 nM
40. [O-][n+]1cc(-c2c(-n3cnnn3)ccc(Cl)c2F)ccc1C(CC1CC1)n1cc(-c2ncns2)cn1 (centres unmarked) [Example P525]  812 nM
41. [O-][n+]1ccc(-c2cnn(C(Cc3ccc(F)cc3)c3ccc(-c4c(OC(F)F)ccc(Cl)c4F)c[n+]3[O-])c2)cc1 (single isomer, unassigned) [Example Q17]  7820 nM
